Measured values from US20260256872A1, “PEPTIDE FOR TREATING DEMYELINATING DISEASES AND USE THEREOF” (KINE SCIENCES Co., Ltd., priority 2023, published 2026).

Key:
[1] = test system: chronic inflammatory demyelinating polyneuropathy (CIDP) animal model; assay: Clinical score in CIDP animal model (EAN P0(180-199)); format: in vivo, Lewis rats
Description: Female Lewis rats (7 weeks old) were obtained and acclimatized for one week. Thereafter, solution A was prepared by dissolving peripheral myelin PO protein (180-199) in 0.9% saline at a concentration of […], and solution B was prepared by dissolving Mycobacterium tuberculosis in Freund's incomplete adjuvant at a concentration of […]. A sterile 50 ml tube was placed in an ice box, and solutions A and B were mixed at a ratio of 1:1. The mixture was then homogenized using a homogenizer for 15 minutes to prepare an emulsion. The prepared emulsion was loaded into a 1 ml syringe, the syringe needle was replaced with a 25G needle, and the syringe was stored in an ice box containing ice until use. The emulsion (200 μL) was subcutaneously (S.C.) injected into the tail of the Lewis rats to induce the disease. […]
In order to examine the progression of CIDP following administration of KINE-101, the severity of CIDP over time after administration of KINE-101 to the CIDP animal model was evaluated and measured using a clinical score.
Specifically, during administration of KINE-101 by the method described in Example <2-1>, the symptoms were evaluated on a scale of 0 to 5 according to the criteria shown in Table 3 below. […] The severity of CIDP was quantified by calculating the average value of the results evaluated for each individual.

[2] = test system: CIDP animal model; assay: Nerve conduction studies (MNCV, CMAP, SNCV, SNAP) in CIDP animal model; format: in vivo, Lewis rats
Description: (§1) Specifically, male Lewis rats (7 weeks old) were obtained and acclimatized for one week. Thereafter, solution A was prepared by dissolving s-palm PO, in which palmitic acid is conjugated to cysteine at the 181st amino acid of peripheral myelin PO protein described in <Example 2>, in saline at a concentration of 2 mg/mL. Solution B was prepared by dissolving Mycobacterium tuberculosis in Freund's adjuvant at a concentration of 5 mg/mL. A sterile 25 mL tube was placed in an ice box, and solutions A and B were mixed at a ratio of 1:1 and homogenized for 15 minutes using a homogenizer to prepare an emulsion. The emulsion (200 μL) was then administered by subcutaneous injection at the base of the rat tail to induce the disease. […] The KINE-101 administration groups received KINE-101 dissolved in DPBS at doses of 6.25, 12.5, 25, and 37.5 mg/kg by intravenous injection (I.V.) three times per week for 15 days, starting the day after disease induction. The IVIg administration group received IVIg at a dose of 400 mg/kg once daily for 5 days starting the day after disease induction. The experiment was terminated on day 15 after disease induction.
(§2) Specifically, KINE-101 or IVIg was administered by the method described in Example <3-1>, and after completion of the experiment, the animals were anesthetized with 1.5% isoflurane and examined. The fur from the distal region of the hind limb to the upper region was removed, and nerve conduction studies for measuring motor and sensory nerves were performed using a Nicolet VikingQuest device as the electrophysiological examination instrument. For the nerve conduction study, a needle electrode was placed on the motor nerve or sensory nerve, and a reference electrode was placed on the gastrocnemius muscle. The stimulating cathode was positioned in the middle of the posterior thigh near the recording electrode, and stimulation was applied at both distal and proximal sites. Motor nerve conduction velocity (MNCV) and compound muscle action potential (CMAP) of the motor nerve, as well as sensory nerve conduction velocity (SNCV) and sensory nerve action potential (SNAP) of the sensory nerve, were measured.

[3] = Body weight change in CIDP animal model (S-palmP0(180-199)); format: in vivo, Lewis rats
Description: as §1
Specifically, body weight was measured during administration of KINE-101 or IVIg by the method described in Example <3-1>, and the change in body weight was calculated relative to the body weight before disease induction (Day 0).

[4] = test system: acquired peripheral nerve injury animal model; assay: Nerve conduction studies in acquired peripheral nerve injury animal model; format: in vivo, C57BL/6 mice
Description: as §2
(§3) Specifically, a uniform nerve injury model can be obtained by damaging the nerve emerging from the spinal cord at a predetermined intensity for a certain period of time, and since both the intensity and duration can be controlled, it is possible to establish a nerve injury model that persists for a desired period. For the disease induction groups, the boundary region between the gluteal muscle and the femoral muscle of the mouse was incised to expose the sciatic nerve. The nerve was then grasped and injured for a predetermined period using a surgical tool (MacJam) at one of three intensities (stages 1, 2, or 3; stage 3 for 3 seconds was used as the reference), after which the incision was sutured to establish an acquired peripheral nerve injury animal model. From the day following disease induction, KINE-101 dissolved in DPBS was administered intravenously (I.V.) at doses of 10, 50, and 100 mg/kg three times per week for a total of four weeks.
Specifically, mice were anesthetized with 1.5% isoflurane at weeks 0, 3, and 6 after administration of KINE-101 according to the method described in Example <4-1>, and MNCV, CMAP, SNCV, and SNAP were measured by the same method described in Example <3-4> to determine whether motor nerves and sensory nerves were damaged.

[5] = test system: Treg cells; assay: Treg cell proportion and activation in lymph nodes at nerve injury site (flow cytometry); format: in vivo, C57BL/6 mice
Text: as §3
Specifically, KINE-101 was administered to the acquired peripheral nerve injury animal model for four weeks according to the method described in Example <4-1>, and the experimental animals were sacrificed six weeks after the start of administration. Thereafter, immune cells were isolated from the lymph nodes at the nerve injury site of the experimental animals. The isolated immune cells were subjected to fluorescent staining for CD4 and Foxp3 proteins, and the proportion of Treg cells among CD4 T cells was determined by flow cytometry. In addition, fluorescent staining for the CTLA4 protein, which is an activation marker of Treg cells, was performed, and the level of CTLA4 expression in Treg cells was compared by flow cytometric analysis to evaluate the degree of activation.

[6] = test system: acquired peripheral nerve injury animal model; assay: Rotarod test in acquired peripheral nerve injury animal model; format: in vivo, C57BL/6 mice; details: weeks 3 and 6; all KINE-101-treated groups (10, 50, 100 mg/kg); vs Injury Ctr
Text: as §3, with “From the day following disease induction, KINE-101 dissolved in DPBS was administered intravenously (I.V.) at doses of 10, 50, and 100 mg/kg three times per week for a total of four weeks.” left out
Demyelinating diseases are known to be accompanied by symptoms such as muscle weakness and impaired balance. […] Specifically, the phenotype of the experimental animals was analyzed using rotarod, grip strength, and tail suspension tests. […] Using a rotarod apparatus (ROTA ROD, LE8205, Panlab), the time during which the animal remained on the rotating rod was measured for 2 minutes and 30 seconds at a fixed speed of 8 rpm. For each evaluation, three trials were conducted, and the maximum duration among the trials was analyzed.

[7] = test system: chronic inflammatory demyelinating polyneuropathy (CIDP) animal model; assay: Demyelination in peripheral nerve tissues (TEM), CIDP animal model; format: in vivo, Lewis rats; details: KINE-101 50 mg/kg I.V.; hind limb peripheral nerve
Description: Female Lewis rats (7 weeks old) were obtained and acclimatized for one week. Thereafter, solution A was prepared by dissolving peripheral myelin PO protein (180-199) in 0.9% saline at a concentration of […], and solution B was prepared by dissolving Mycobacterium tuberculosis in Freund's incomplete adjuvant at a concentration of […]. A sterile 50 ml tube was placed in an ice box, and solutions A and B were mixed at a ratio of 1:1. The mixture was then homogenized using a homogenizer for 15 minutes to prepare an emulsion. The prepared emulsion was loaded into a 1 ml syringe, the syringe needle was replaced with a 25G needle, and the syringe was stored in an ice box containing ice until use. The emulsion (200 μL) was subcutaneously (S.C.) injected into the tail of the Lewis rats to induce the disease. […] From the day following disease induction, KINE-101 dissolved in DPBS was intravenously (I.V.) administered three times per week at doses of 1, 5, 25, and 50 mg/kg.
Tissue cross-sections were then observed using a transmission electron microscope (TEM) to evaluate the degree of myelin loss. In addition, comparisons were made with the normal group (Normal) and the CIDP-induced group (EAN PO (180-199)).

[8] = test system: acquired peripheral nerve injury animal model; assay: Histopathological examination of nerve tissues (toluidine blue, TEM), acquired peripheral nerve injury animal model; format: in vivo, C57BL/6 mice; details: for myelinated axons and unmyelinated fibers: vs acquired peripheral nerve injury group
Text: as §3
Specifically, KINE-101 was administered to the acquired peripheral nerve injury animal model for four weeks according to the method described in Example <4-1>, and the experimental animals were sacrificed six weeks after the start of administration. Thereafter, peripheral nerve tissues of the hind limbs were isolated and fixed in a 4% paraformaldehyde solution containing 2.5% glutaraldehyde. After ethanol dehydration, the tissues were embedded in epoxy resin and semi-thin sections (1 μm) were prepared. The semi-thin sections were stained with toluidine blue for 5-10 seconds and observed under a light microscope. In addition, ultra-thin sections (65 nm) were prepared, and tissue cross-sections were observed using a transmission electron microscope (TEM) to examine abnormalities of myelin (demyelination, dysmyelination, and hypermyelination).

[9] = test system: CIDP animal model; assay: Clinical score in CIDP animal model (S-palmP0(180-199)), KINE-101 vs IVIg; format: in vivo, Lewis rats
[10] = all KINE-101-treated groups (6.25-37.5 mg/kg I.V.), after day 15
[11] = all KINE-101-treated groups, IVIg 400 mg/kg
[12] = week 3, KINE-101 10 mg/kg I.V. three times per week for four weeks
[13] = week 3, KINE-101 50 mg/kg I.V. three times per week for four weeks
[14] = week 6, KINE-101 50 mg/kg I.V. three times per week for four weeks
[15] = weeks 3 and 6, KINE-101-treated groups (10, 50, 100 mg/kg)

Sequence: PSPPSPPSP [KINE-101, trimeric polymer prepared using a PSP fragment (PSP monomer)]
- clinical score ([1]; KINE-101 50 mg/kg I.V. three times per week): lowest clinical score
- clinical score (CIDP symptoms) ([1]; all KINE-101-treated groups (1, 5, 25, 50 mg/kg I.V. three times per week), vs CIDP-induced group): alleviation of symptoms after day 15
- MNCV and CMAP ([2]; KINE-101 12.5 mg/kg I.V.): most pronounced effect
- SNCV and SNAP ([2]; KINE-101 12.5 mg/kg I.V.): most pronounced effect
- compound muscle action potential (CMAP) [2, 10]: higher MNCV and CMAP values compared with the negative control group
- motor nerve conduction velocity (MNCV) [2, 10]: higher MNCV and CMAP values compared with the negative control group
- sensory nerve action potential (SNAP) [2, 10]: higher SNCV and SNAP values compared with the negative control group
- sensory nerve conduction velocity (SNCV) [2, 10]: higher SNCV and SNAP values compared with the negative control group
- MNCV and CMAP vs IVIg-treated group [2, 11]: effects similar to or superior to those of the IVIg-treated group
- SNCV and SNAP vs IVIg-treated group [2, 11]: effects similar to those of the IVIg-treated group
- body weight improvement effect ([3]; KINE-101 12.5 mg/kg I.V.): most pronounced body weight improvement effect
- body weight gain vs negative control group ([3]; KINE-101-treated groups (6.25-37.5 mg/kg I.V.)): greater body weight gain compared with the negative control group
- body weight vs before disease induction (Day 0) ([3]; KINE-101-treated groups, day 15 after disease induction): maintained significantly higher body weight than that before disease induction
- CMAP [4, 12]: 11.0±2.3 mV
- SNCV [4, 12]: 27.7±2.8 m/s
- MNCV [4, 13]: 46.7±7.4 m/s
- SNAP [4, 13]: 11.2±3.1 μV
- SNCV [4, 13]: 27.6±2.2 m/s
- SNCV ([4]; week 3, KINE-101 100 mg/kg I.V. three times per week for four weeks): 28.6±3.7 m/s
- CMAP [4, 14]: 32.9±4.0 mV
- MNCV [4, 14]: 63.9±7.6 m/s
- SNAP [4, 14]: 12.3±2.9 μV
- SNCV [4, 14]: 27.9±3.1 m/s
- MNCV ([4]; week 6, KINE-101 100 mg/kg I.V. three times per week for four weeks): 59.0±4.5 m/s
- MNCV ([4]; week 6, KINE-101-treated groups (10, 50, 100 mg/kg)): increased
- CMAP [4, 15]: increased compared with those in the acquired peripheral nerve injury group
- SNAP [4, 15]: increased compared with those in the acquired peripheral nerve injury group
- CTLA4 expression in Treg cells (activation marker) ([5]; KINE-101 50 mg/kg): increased to a statistically significant level
- proportion of Treg cells among CD4 T cells in lymph nodes at nerve injury site ([5]; KINE-101 50 mg/kg): increased to a statistically significant level
- CTLA4 expression in Treg cells (activation marker) ([5]; KINE-101-treated groups (10, 50, 100 mg/kg)): increased
- proportion of Treg cells among CD4 T cells in lymph nodes at nerve injury site ([5]; KINE-101-treated groups (10, 50, 100 mg/kg), six weeks after start of administration): increased
- muscle strength and balance (rotarod) [6]: improved muscle strength and balance
- demyelination (degree of myelin loss, TEM) [7]: demyelination was suppressed similarly to that observed in the normal group
- myelinated axons and unmyelinated fibers ([8]; KINE-101 50 mg/kg): marked increase in myelinated axons and a decrease in unmyelinated fibers
- myelinated axons and unmyelinated fibers ([8]; KINE-101 100 mg/kg): marked increase in myelinated axons and a decrease in unmyelinated fibers
- myelination ([8]; KINE-101-treated groups (10, 50, 100 mg/kg), six weeks after start of administration, vs Injury Ctr): improved myelination
- number of large myelinated fibers and small unmyelinated fibers ([8]; KINE-101-treated groups, six weeks after start of administration): an increase in the number of large myelinated fibers and a decrease in the number of small unmyelinated fibers
- clinical score ([9]; KINE-101 25 mg/kg I.V. three times per week): lowest clinical score
- clinical score ([9]; all KINE-101-treated groups (6.25 mg/kg to 37.5 mg/kg I.V. three times per week), day 15 after disease induction): lower clinical scores on day 15 after disease induction compared with the negative control group
